Results from patent publication US20260108447A1, “RESIDENT-SKIN-FLORA-IMPROVING AGENT AND EXTERNAL-USE COMPOSITION FOR SKIN” (NIHON SHOKUHIN KAKO CO., LTD., priority 2022, published 2026).

Legend:
Test in all cases: Change in bacteria count (bacterial turbidity OD660) when the sugar is added to the culture medium
Assay type in all cases: cell-based
[1] = system: Staphylococcus epidermidis (JCM20345); conditions: 24 hours
Experimental: (§1) An investigation was conducted in regard to a change in bacteria count when the α-gluco-oligosaccharide or the β-gluco-oligosaccharide prepared as described above was added to a culture medium and culturing was carried out in culturing of the various bacteria indicated in table 3 as resident skin bacteria under respectively suitable culture conditions.
(§2) Specifically, the various bacteria were cultured overnight using respectively suitable culture media to prepare preculture solutions, and the α-gluco-oligosaccharide or the β-gluco-oligosaccharide prepared as described above was added to 3 mL of fresh culture media so as to reach a final concentration of 0.5 (w/v) %, whereupon 0.03 ml of the preculture liquids was mixed thereinto and cultured for 24 hours, and the bacterial turbidity (OD660) after culturing was measured. Additionally, glucose was added as a sugar to a culture medium and similar tests were performed to arrive at a comparative control. The results were expressed as relative values (percentage relative to non-sugar-added group), where 100% indicated the bacterial turbidity when sterilized ultrapure water was added instead of any sugar.
Specifically, the effect for promoting proliferation of S. epidermidis was evaluated in the same manner as in test example 1, except that sophorose, laminaribiose, or gentiobiose prepared at high purity as described above was used as the sugar to be added to the culture medium, and the amount of the sugar added to the culture medium was set to 0.3 (w/v) % or 0.5 (w/v) % in terms of the final concentration.
The effect for promoting proliferation of S. epidermidis was evaluated in the same manner as in test example 2, except that sophorose prepared at high purity as described above was used as the β-gluco-oligosaccharide composed of disaccharides, and the amount of the sophorose added to the culture medium was set to 0.1 (w/v) % or 1.0 (w/v) % in terms of the final concentration.

[2] = system: Staphylococcus hominis (JCM31912); conditions: 24 hours; for proliferation of S. hominis, relative value (percentage relative to non-sugar-added group): test example 4, OD660, FIG. 4; for effect for promoting proliferation: test example 5, FIG. 5, sentence names no bacterium, taken as S. hominis
Experimental: as §1, §2
(§3) The effect for promoting proliferation of S. hominis, S. aureus, C. acnes, C. xerosis, or M. luteus was evaluated in the same manner as in test example 1, except that sophorose prepared at high purity as described above was used as the β-gluco-oligosaccharide composed of disaccharides, and the amount of the sophorose added to the culture medium was set to 0.1 (w/v) %, 0.5 (w/v) %, or 1.0 (w/v) % in terms of final concentration.
(§4) The effect for promoting proliferation of S. hominis, S. aureus, C. acnes, C. xerosis, or M. luteus was evaluated in the same manner as in test example 1, except that laminaribiose and gentiobiose prepared at high purity as described above, as well as commercially available cellobiose (Nacalai Tesque, Inc.), were used as the β-gluco-oligosaccharide composed of disaccharides, and the amount of the β-gluco-oligosaccharide added to the culture medium was set to 0.5 (w/v) % in terms of final concentration.

[3] = system: Corynebacterium xerosis (JCM1971); conditions: test example 4; at any of 0.1, 0.5, 1.0 (w/v) %, 24 hours; FIG. 4
Experimental: as §1, §2, §3, §4

[4] = system: Micrococcus luteus (JCM1464); conditions: 24 hours; for proliferation of M. luteus, relative value (percentage relative to non-sugar-added group): test example 5, final concentration 0.5 (w/v) %, OD660, FIG. 5
Experimental: as §1, §2, §3, §4

[5] = system: Staphylococcus aureus (ATCC6538); conditions: 24 hours
Experimental: as §1, §2, §3, §4

[6] = system: Cutibacterium acnes (JCM6425); conditions: test example 4; at any of 0.1, 0.5, 1.0 (w/v) %, 24 hours; FIG. 4
Experimental: as §1, §2, §3, §4

[7] = test example 2, high-purity sugar 0.3 (w/v) % or 0.5 (w/v) % final concentration, FIG. 2
[8] = final concentration 0.5 (w/v) %
[9] = test example 4, at any of 0.1, 0.5, 1.0 (w/v) %, FIG. 4

Compound | effect for promoting proliferation of S. epidermidis [1, 7] | effect for promoting proliferation of S. epidermidis ([1]; test example 3, final concentration 0.1 (w/v) %, FIG. 3) | effect for promoting proliferation of S. epidermidis, compared with 0.5 (w/v) % of test example 2 ([1]; test example 3, final concentration 1.0 (w/v) %, FIG. 3) | proliferation of S. hominis, relative value (percentage relative to non-sugar-added group) [2, 8] | proliferation of S. hominis, relative value (percentage relative to non-sugar-added group) ([2]; final concentration 1.0 (w/v) %) | effect for promoting proliferation of C. xerosis relative to the control [3] | effect for promoting proliferation of M. luteus relative to the control [4, 9] | effect for promoting proliferation of S. aureus relative to the control [5, 9] | effect for promoting proliferation of C. acnes relative to the control [6] | effect for promoting proliferation [2, 8] | proliferation of M. luteus, relative value (percentage relative to non-sugar-added group) [4] | proliferation of S. aureus, relative value (percentage relative to non-sugar-added group) ([5]; test example 5, final concentration 0.5 (w/v) %, OD660, FIG. 5)
O=C[C@H](O[C@@H]1O[C@H](CO)[C@@H](O)[C@H](O)[C@H]1O)[C@@H](O)[C@H](O)[C@H](O)CO [sophorose, 2-O-β-D-glucopyranosyl-D-glucose] | prominent effect for promoting proliferation | exhibit the effect for promoting proliferation | no great difference was observed | 118.0% | 118.8% | no effect for promoting proliferation | no effect for promoting proliferation | no effect for promoting proliferation | no effect for promoting proliferation |  |  | 
gentiobiose | did not exhibit an effect for promoting proliferation |  |  |  |  |  |  |  |  | not confirmed to yield an effect for promoting proliferation | 121.9% | 
O=C[C@H](O)[C@@H](O)[C@H](O[C@@H]1O[C@H](CO)[C@@H](O)[C@H](O)[C@H]1O)[C@H](O)CO [cellobiose] |  |  |  |  |  |  |  |  |  | not confirmed to yield an effect for promoting proliferation | 111.7% | 
OC[C@H]1O[C@@H](O[C@H]2[C@H](O)[C@@H](CO)OC(O)[C@@H]2O)[C@H](O)[C@@H](O)[C@@H]1O (some centres unmarked) [laminaribiose, reference compound] | did not exhibit an effect for promoting proliferation |  |  |  |  |  |  |  |  | not confirmed to yield an effect for promoting proliferation |  | 108.5%
